Calls of active or inactive are those of the source. The calls are words filed in the database; no cut-off is given here.
Columns and labels:
[1] = target: T1, Nuclear factor erythroid 2-related factor 2 (Homo sapiens) (UniProt Q16236); assay: Activation of Nrf2 in human L02 cells assessed as increase in NQO-1 expression at 10 uM measured after 4 to 72 hrs hrs by Western blot analysis; format: cell-based
T1 sequence (whole entry): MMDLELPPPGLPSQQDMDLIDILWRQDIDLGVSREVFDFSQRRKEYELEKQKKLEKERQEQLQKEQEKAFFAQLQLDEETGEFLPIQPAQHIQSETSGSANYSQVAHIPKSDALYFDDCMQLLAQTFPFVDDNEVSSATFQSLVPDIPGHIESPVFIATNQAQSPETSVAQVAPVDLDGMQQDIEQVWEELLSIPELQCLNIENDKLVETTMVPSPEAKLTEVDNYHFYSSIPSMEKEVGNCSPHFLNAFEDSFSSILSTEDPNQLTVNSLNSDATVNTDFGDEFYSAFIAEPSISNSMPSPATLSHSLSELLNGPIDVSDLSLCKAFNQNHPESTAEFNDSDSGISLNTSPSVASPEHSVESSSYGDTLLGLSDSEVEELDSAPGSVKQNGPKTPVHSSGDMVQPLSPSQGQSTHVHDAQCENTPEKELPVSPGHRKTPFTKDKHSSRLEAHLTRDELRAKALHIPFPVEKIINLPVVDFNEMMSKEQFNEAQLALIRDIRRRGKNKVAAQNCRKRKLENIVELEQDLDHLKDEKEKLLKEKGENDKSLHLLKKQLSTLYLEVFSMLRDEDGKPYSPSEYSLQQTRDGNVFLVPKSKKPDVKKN

[2] = test system: L02; assay: Cytotoxicity against human L02 cells assessed as reduction in cell viability up to 100 uM measured after 48 hrs by MTT assay; format: cell-based; settings: l02, 48 h
[3] = target: T1, Nuclear factor erythroid 2-related factor 2 (Homo sapiens); assay: Activation of Nrf2 in human L02 cells assessed as increase in HO-1 expression measured after 12 hrs by Western blot analysis; format: cell-based
[4] = target: T1, Nuclear factor erythroid 2-related factor 2 (Homo sapiens); assay: Activation of Nrf2 in human L02 cells assessed as increase in NQO-1 mRNA expression measured after 12 hrs by trizol reagent based qRT-PCR analysis; format: cell-based
[5] = test system: L02; assay: Cytoprotective activity against APAP-induced hepatotoxicity in human L02 cells assessed as increase in cell viability at 1 to 20 uM preincubated for 12 hrs followed by APAP addition and measured after 24 hrs by MTT assay; format: functional, cell-based
[6] = test system: Mus musculus; assay: Protection against APAP-induced hepatotoxicity in C57BL/6 mouse assessed as decrease in Nrf2 expression in liver at 10 to 40 mg/kg, ip treated 2 hrs prior to 22 hrs starvation followed by APAP challenge and measured after 6 hrs by Dako/Mayer's hematoxylin staining-based immunohistochemical analysis; format: functional, organism-based
[7] = test system: L02; assay: Cytoprotective activity against APAP-induced hepatotoxicity in human L02 cells harboring Nrf2 siRNA assessed as increase in cell viability at 5 to 10 uM preincubated for 12 hrs followed by APAP addition and measured after 24 hrs by MTT assay; format: functional, cell-based
[8] = test system: L02; assay: Upregulation of HO-1 expression in human L02 cells harboring Nrf2 siRNA at 10 uM measured after 10 hrs by Western blot analysis; format: functional, cell-based
[9] = target: T1, Nuclear factor erythroid 2-related factor 2 (Homo sapiens); assay: Activation of Nrf2 in human L02 cells harboring control siRNA assessed as increase in GCLM expression at 10 uM measured after 10 hrs by Western blot analysis; format: cell-based
[10] = target: T1, Nuclear factor erythroid 2-related factor 2 (Homo sapiens); assay: Activation of Nrf2 in human L02 cells harboring control siRNA assessed as increase in HO-1 mRNA expression at 10 uM measured after 10 hrs by trizol reagent based qRT-PCR analysis; format: cell-based
[11] = target: T1, Nuclear factor erythroid 2-related factor 2 (Homo sapiens); assay: Activation of Nrf2 in human L02 cells harboring control siRNA assessed as increase in GCLM mRNA expression at 10 uM measured after 10 hrs by trizol reagent based qRT-PCR analysis; format: cell-based
[12] = test system: L02; assay: Upregulation of GCLM expression in human L02 cells harboring Nrf2 siRNA at 10 uM measured after 10 hrs by Western blot analysis; format: functional, cell-based
[13] = target: T1, Nuclear factor erythroid 2-related factor 2 (Homo sapiens); assay: Activation of Nrf2 in human L02 cells assessed as increase in NEFL2L mRNA expression measured after 12 hrs by trizol reagent based qRT-PCR analysis; format: cell-based
[14] = test system: L02; assay: Upregulation of NEFL2L mRNA expression in human L02 cells harboring Nrf2 siRNA at 10 uM measured after 10 hrs by trizol reagent based qRT-PCR analysis; format: functional, cell-based
[15] = target: T1, Nuclear factor erythroid 2-related factor 2 (Homo sapiens); assay: Activation of Nrf2 in human L02 cells harboring control siRNA assessed as increase in NQO-1 mRNA expression at 10 uM measured after 10 hrs by trizol reagent based qRT-PCR analysis; format: cell-based
[16] = test system: L02; assay: Cytoprotective activity against APAP-induced oxidative stress in human L02 cells assessed as decrease in ALP level at 5 to 10 uM preincubated for 12 hrs followed by APAP stimulation and measured after 24 hrs; format: functional, cell-based
[17] = target: T1, Nuclear factor erythroid 2-related factor 2 (Homo sapiens); assay: Activation of Nrf2 in human L02 cells assessed as increase in HO-1 mRNA expression measured after 12 hrs by trizol reagent based qRT-PCR analysis; format: cell-based
[18] = target: T1, Nuclear factor erythroid 2-related factor 2 (Homo sapiens); assay: Activation of Nrf2 in human L02 cells assessed as increase in GCLM mRNA expression at 10 uM measured after 8 to 24 hrs by trizol reagent based qRT-PCR analysis; format: cell-based
[19] = target: T1, Nuclear factor erythroid 2-related factor 2 (Homo sapiens); assay: Activation of Nrf2 in human L02 cells assessed as increase in HO-1 mRNA expression at 10 uM measured after 8 to 24 hrs by trizol reagent based qRT-PCR analysis; format: cell-based
[20] = test system: Mus musculus; assay: Protection against APAP-induced hepatotoxicity in C57BL/6 mouse assessed as increase in GSH/GSSG ratio in liver at 10 to 40 mg/kg, ip treated 2 hrs prior to 22 hrs starvation followed by APAP challenge and measured after 6 hrs; format: functional, organism-based
[21] = test system: L02; assay: Cytoprotective activity against APAP-induced oxidative stress in human L02 cells assessed as decrease in ALT level at 5 to 10 uM preincubated for 12 hrs followed by APAP stimulation and measured after 24 hrs; format: functional, cell-based
[22] = target: T1, Nuclear factor erythroid 2-related factor 2 (Homo sapiens); assay: Activation of Nrf2 (unknown origin) stably transfected in human HepG2-ARE-C8 cells assessed as increase in ARE-driven luciferase activity by luciferase reporter gene assay; format: cell-based
[23] = test system: L02; assay: Cytoprotective activity against APAP-induced oxidative stress in human L02 cells assessed as increase in GSH/GSSG ratio at 5 to 10 uM preincubated for 12 hrs followed by APAP stimulation and measured after 24 hrs; format: functional, cell-based
[24] = test system: Mus musculus; assay: Protection against APAP-induced hepatotoxicity in C57BL/6 mouse assessed as decrease in IL1beta production at 10 mg/kg, ip treated 2 hrs prior to 22 hrs starvation followed by APAP challenge and measured after 6 hrs; format: functional, organism-based
[25] = target: T1, Nuclear factor erythroid 2-related factor 2 (Homo sapiens); assay: Activation of Nrf2 in human L02 cells assessed as increase in HO-1 expression at 10 uM measured after 4 to 72 hrs hrs by Western blot analysis; format: cell-based
[26] = target: T1, Nuclear factor erythroid 2-related factor 2 (Homo sapiens); assay: Activation of Nrf2 in human L02 cells assessed as increase in NEFL2L expression measured after 12 hrs by Western blot analysis; format: cell-based
[27] = test system: Mus musculus; assay: Protection against APAP-induced hepatotoxicity in C57BL/6 mouse assessed as decrease in GCLM expression in liver at 10 to 40 mg/kg, ip treated 2 hrs prior to 22 hrs starvation followed by APAP challenge and measured after 6 hrs by Dako/Mayer's hematoxylin staining-based immunohistochemical analysis; format: functional, organism-based

COc1ccc(S(=O)(=O)N(CC(=O)O)c2ccc(N3CCC[C@H]3C(=O)O)c3ccccc23)cc1
Activity [1]: Active | Activity [2]: Non-Toxic | Activity [3]: Dose-dependent effect | Activity [4]: Dose-dependent effect | Activity [5]: Active | Activity [6]: Active | Activity [7]: inactive | Activity [8]: inactive | Activity [9]: Active | Activity [10]: Active | Activity [11]: Active | Activity [12]: inactive | Activity [13]: Dose-dependent effect | Activity [14]: inactive | Activity [15]: Active | Activity [16]: Active | Activity [17]: Dose-dependent effect | Activity [18]: Active | Activity [19]: Active | Activity [20]: Active | Activity [21]: Active | Activity [22]: Dose-dependent effect | Activity [23]: Active | Activity [24]: Active | Activity [25]: Active | Activity [26]: Dose-dependent effect | Activity [27]: Active

From ChEMBL document CHEMBL4364299, “Discovery of a Potent Kelch-Like ECH-Associated Protein 1-Nuclear Factor Erythroid 2-Related Factor 2 (Keap1-Nrf2) Protein-Protein Interaction Inhibitor with Natural Proline Structure as a Cytoprotective Agent against Acetaminophen-Induced Hepatotoxicity” (J Med Chem, 2019)
